Test results as given in PubChem BioAssay AID1963833 (Molecular Pharmacology Branch, DTP, NCI, 2024).

System: 883617-216-R-J1-PDC complex spheroid viability
Test: Anticancer human tumor 883617-216-R-J1-PDC patient-derived bladder carcinoma cell line growth inhibition [POLQ]
Conditions: for IC50: curve of first compound; for viability, T/C: stronger effect = lower value
Experimental: Multicellular complex tumor spheroid response to Polymerase (POL) inhibitors (novobiocin, ART-558, RP6685) in combination with a variety of drugs and investigational agents in selected tumor cell lines
The POL inhibitors (novobiocin, ART-558, and RP6685) were evaluated both individually and in combination with standard of care and investigational anticancer small molecules within a complex spheroid model of solid tumors. . Complex spheroids include a stromal component modeled by human endothelial cells (HUVEC) and fibroblasts modeled by human mesenchymal stem cells (MSCs). The concentration ranges selected for each drug and investigational agent were based upon clinically achievable concentrations if the clinical Cmax of the agent was known.
Compounds. The drugs and investigational agents: novobiocin (NSC847541), ART-558 (NSC835418), RP-6685 (NSC848927), peposertib (NSC802822), ceralasertib (NSC780249), elimusertib (NSC800525), camonsertib (NSC841442), AZD-1390 (NSC803789), olaparib (NSC753686), talazoparib (NSC767125), rucaparib (NSC756644), sotorasib (NSC818433), MRTX-1133 (NSC836407), SN-38 (NSC673596), topotecan (NSC609699), epotoside (NSC141540), doxorubicin (NSC123127), gemcitabine (NSC613327), 5-fluorouracil (NSC19893), paclitaxel (NSC125973), vemurafenib (NSC761431), MSA-2 (NSC828583), SN-011 (NSC837082), adavosertib (NSC754352), prexasertib (NSC758257), carboplatin (NSC241240) and oxaliplatin (NSC266046), were obtained from the National Cancer Institute (NCI) Developmental Therapeutics Program Chemical Repository (21). The FDA-approved anticancer drug set is available from the Developmental Therapeutics Program at https://dtp.cancer.gov/organization/dscb/obtaining/. […] The stock solutions were prepared in dimethyl sulfoxide (DMSO, Sigma-Aldrich, St. Louis, MO, cat. D2650), except for the platinum compounds which were prepared in saline (Quality Biological, Gaithersburg, MD, cat. 114-055-101), at 800-fold the tested concentration and stored at -70 degrees C prior to their use. All drugs and investigational agents were tested over a range starting from a high concentration at or near the clinical Cmax and decreasing in half-log increments. If the clinical Cmax for an agent had not been determined, the highest concentration tested was 10 microM, except for SN-38, which was tested at a high concentration of 1 microM.
Cell Culture. All cells were maintained in an incubator at 37 degrees C and 5% CO2 with 95% humidity. The PDC lines were cultured according to standard operating procedures established by the NCI PDMR (https://pdmr.cancer.gov). Table 3 of the manuscript, lists the cell lines along with the number of the three cell types plated to form the mct-spheroids and media for tumor cell growth. After thawing, all PDC lines, except 997537-175-T-J1-PDC and 415267-285-R-J2-PDC, were cultured in Matrigel-coated flasks prepared with a working solution of 1X Ham's F-12 nutrient mix, without supplementation (Thermo Fisher Scientific, cat. 11765054), 100 U/mL penicillin-streptomycin (Thermo Fisher Scientific, cat. 15140122), and 2.5% Matrigel (Corning Inc., Corning, NY, cat. 354248) for the first three passages. The two PDC lines 997537-175-T-J1-PDC and 415267-285-R-J2-PDC were cultured on uncoated flasks. The 857933-349-R-J2-PDC line was cultured in 6C/Colon 1B media containing advanced DMEM/F-12 (Thermo Fisher Scientific, cat. 12634028), 10 mM HEPES (Thermo Fisher Scientific, cat. 15630080), 1X GlutaMAX supplement (Thermo Fisher Scientific, cat. 35050061), 0.1 mg/mL primocin (InvivoGen, San Diego, CA, cat. ant-pm-2), 10% defined fetal bovine serum, heat inactivated (HyClone Laboratories Inc., Logan, UT, cat. SH30070.03HI), 50% L-WRN conditioned media (ATCC, cat. CRL-3276), 1.25 mM N-Acetyl-L-cysteine (Sigma-Aldrich, cat. A9165), 10 mM nicotinamide (Sigma-Aldrich, cat. N0636), 1X B-27 supplement (Thermo Fisher Scientific, cat. 17504044), 1X N-2 supplement (Thermo Fisher Scientific, cat. […]

[1] = second compound 0.0316 µM, first compound 0.0316 µM
[2] = second compound 0.0316 µM, first compound 0.1 µM
[3] = second compound 0.0316 µM, first compound 0.316 µM
[4] = second compound 0.0316 µM, first compound 1 µM
[5] = second compound 0.1 µM, first compound 0.0316 µM
[6] = second compound 0.1 µM, first compound 0.1 µM
[7] = second compound 0.1 µM, first compound 0.316 µM
[8] = second compound 0.1 µM, first compound 1 µM
[9] = second compound 0.316 µM, first compound 0.0316 µM
[10] = second compound 0.316 µM, first compound 0.1 µM
[11] = second compound 0.316 µM, first compound 0.316 µM
[12] = second compound 0.316 µM, first compound 1 µM
[13] = second compound 1 µM, first compound 0.0316 µM
[14] = second compound 1 µM, first compound 0.1 µM
[15] = second compound 1 µM, first compound 0.316 µM
[16] = second compound 1 µM, first compound 1 µM
[17] = second compound 3.16 µM, first compound 0.0316 µM
[18] = second compound 3.16 µM, first compound 0.1 µM
[19] = second compound 3.16 µM, first compound 0.316 µM
[20] = second compound 3.16 µM, first compound 1 µM
[21] = second compound 10 µM, first compound 0.0316 µM
[22] = second compound 10 µM, first compound 0.1 µM
[23] = second compound 10 µM, first compound 0.316 µM
[24] = second compound 10 µM, first compound 1 µM
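Note: spheroids exposed to compounds for seven days before readout.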
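Throughout, for viability, T/C: 100% = DMSO vehicle control viability.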

In the case of `COc1cc2cc(C(=O)CCC(=O)O)sc2cc1OC` + COC1C(OC(N)=O)C(O)C(Oc2ccc3c(O)c(NC(=O)c4ccc(O)c(CC=C(C)C)c4)c(=O)oc3c2C)OC1(C)C, the IC50 (second compound 0.0316 µM) is reported as > 10000 nM, the IC50 (second compound 0.1 µM) is reported as > 10000 nM and the IC50 (second compound 0.316 µM) is reported as > 10000 nM. The IC50 (second compound 1 µM) was > 10000 nM, the IC50 (second compound 3.16 µM) was > 10000 nM and the IC50 (second compound 10 µM) was > 10000 nM. It also gave a viability, T/C [1] of 91.3%, a viability, T/C [2] of 89.1% and a viability, T/C [3] of 105%. For the same molecule, the viability, T/C [4] was 83.3%, the viability, T/C (second compound 0.0316 µM, first compound 3.16 µM) was 101% and the viability, T/C (second compound 0.0316 µM, first compound 10 µM) was 90.9%. The viability, T/C [5] was 113%, the viability, T/C [6] was 102% and the viability, T/C [7] was 88.7%. For the same molecule, the viability, T/C [8] was 93.8%, the viability, T/C (second compound 0.1 µM, first compound 3.16 µM) was 99.6% and the viability, T/C (second compound 0.1 µM, first compound 10 µM) was 102%. For the same molecule, the viability, T/C [9] was 89.4%, the viability, T/C [10] was 83.6% and the viability, T/C [11] was 92.5%. It also gave a viability, T/C [12] of 93%, a viability, T/C (second compound 0.316 µM, first compound 3.16 µM) of 101% and a viability, T/C (second compound 0.316 µM, first compound 10 µM) of 89.2%. The viability, T/C [13] was 98.9%, the viability, T/C [14] was 96.6% and the viability, T/C [15] was 86.4%. It also gave a viability, T/C [16] of 100%, a viability, T/C (second compound 1 µM, first compound 3.16 µM) of 90.4% and a viability, T/C (second compound 1 µM, first compound 10 µM) of 98.2%. It also gave a viability, T/C [17] of 94%, a viability, T/C [18] of 94.1% and a viability, T/C [19] of 90.7%. The viability, T/C [20] was 101%, the viability, T/C (second compound 3.16 µM, first compound 3.16 µM) was 98.6% and the viability, T/C (second compound 3.16 µM, first compound 10 µM) was 92.4%. For the same molecule, the viability, T/C [21] was 101%, the viability, T/C [22] was 98.5% and the viability, T/C [23] was 88.5%. It also gave a viability, T/C [24] of 93.9%, a viability, T/C (second compound 10 µM, first compound 3.16 µM) of 84.6% and a viability, T/C (second compound 10 µM, first compound 10 µM) of 101%.

In the case of `C=CCn1c(=O)c2cnc(Nc3ccc(N4CCN(C)CC4)cc3)nc2n1-c1cccc(C(C)(C)O)n1` + Cc1cccc(N(C)C(=O)C2C(O)CCN2c2nc(C)cc(C(F)(F)F)c2C#N)c1, the IC50 (second compound 0.0316 µM) is reported as 938 nM, the IC50 (second compound 0.1 µM) is reported as > 1000 nM and the IC50 (second compound 0.316 µM) is reported as 896 nM. For the same molecule, the IC50 (second compound 1 µM) was > 1000 nM, the IC50 (second compound 3.16 µM) was > 1000 nM and the IC50 (second compound 10 µM) was > 1000 nM. The viability, T/C (second compound 0.0316 µM, first compound 0.00316 µM) was 106%, the viability, T/C (second compound 0.0316 µM, first compound 0.01 µM) was 101% and the viability, T/C [1] was 96.7%. For the same molecule, the viability, T/C [2] was 86.6%, the viability, T/C [3] was 92.7% and the viability, T/C [4] was 47.1%. For the same molecule, the viability, T/C (second compound 0.1 µM, first compound 0.00316 µM) was 93.5%, the viability, T/C (second compound 0.1 µM, first compound 0.01 µM) was 93.3% and the viability, T/C [5] was 95.4%. For the same molecule, the viability, T/C [6] was 109%, the viability, T/C [7] was 86.2% and the viability, T/C [8] was 53%. For the same molecule, the viability, T/C (second compound 0.316 µM, first compound 0.00316 µM) was 88.2%, the viability, T/C (second compound 0.316 µM, first compound 0.01 µM) was 99.3% and the viability, T/C [9] was 102%. It also gave a viability, T/C [10] of 98.8%, a viability, T/C [11] of 90.8% and a viability, T/C [12] of 45.5%. For the same molecule, the viability, T/C (second compound 1 µM, first compound 0.00316 µM) was 97.7%, the viability, T/C (second compound 1 µM, first compound 0.01 µM) was 99% and the viability, T/C [13] was 108%. It also gave a viability, T/C [14] of 112%, a viability, T/C [15] of 81.9% and a viability, T/C [16] of 53.2%. The viability, T/C (second compound 3.16 µM, first compound 0.00316 µM) was 104%, the viability, T/C (second compound 3.16 µM, first compound 0.01 µM) was 108% and the viability, T/C [17] was 97.6%. The viability, T/C [18] was 93.6%, the viability, T/C [19] was 100% and the viability, T/C [20] was 53.4%. The viability, T/C (second compound 10 µM, first compound 0.00316 µM) was 102%, the viability, T/C (second compound 10 µM, first compound 0.01 µM) was 108% and the viability, T/C [21] was 119%. It also gave a viability, T/C [22] of 99%, a viability, T/C [23] of 107% and a viability, T/C [24] of 54.3%.
